{"source": "patent US20040005256A1", "about": "“Crystallization system utilizing atomization” (priority 2002, published 2004)", "experiment": "maximum concentration of D,L-Threonine dissolved in water", "assay_type": "physicochemical", "details": "solid dissolved in water (solvent) before atomization into acetone anti-solvent", "protocol": "For example, the material-containing solution may be composed of a solvent, such as water, and a material to be crystallized, such as D,L-Threonine, dissolved in the water. The anti-solvent could be acetone. The solid D,L-Threonine is dissolved at its maximum concentration ratio (160 g/L) in water. The D,L-Threonine solution is atomized and introduced into the acetone. The atomized solution and the acetone are then mixed to produce the crystallized product.", "data": [{"smiles": "C[C@@H](O)[C@H](N)C(=O)O", "note": "(racemic) [D,L-Threonine]", "values": [{"measurement": "maximum concentration ratio in water", "result": 160, "unit": "g/L"}]}]}
